One test concerns the target hNAMPT protein (Homo sapiens (Human), UniProt P43490). Kind of test: NAMPT enzyme assay (TR-FRET/HTRF with BodiPY ligand). The class given is binding. As to conditions: for inhibition at 1 µM: NAMPT inhibition at compound concentration 1 μM, read-out: Percent Inhibition; for pIC50: NAMPT inhibition, IC50 range class. An outline of the steps: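 His-tagged hNAMPT with anti-6His-Tb, incubated with compound and BodiPY ligand for 1 h at rt in the dark, in Tris-HCl pH 7.5 buffer with DTT, NaCl, MgCl2 and Tween 20. TR-FRET measured with 320 nm excitation as the 520/486 nm emission ratio. IC50 fitted relative to DMSO controls.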
On the technique in general: In TR-FRET formats the signal depends on donor and acceptor labels being close together.

The subject of another test is PC3 cells. The test is described as follows: PC3 growth inhibition (Cell-titer glo, 72 hours). The format is cell-based. As to conditions: Homo sapiens, PC-3, 72 h, read-out: Percent Viability, PC3 cells, compound concentration 1.667 μM, 72 hours. An outline of the steps: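 PC3 cells grown in RPMI1640 plated at 8×10^4 cells/ml, incubated overnight, then exposed to compound diluted in AIM serum-free medium for 72 h at 37 °C, 5% CO2. Luminescence by CellTiter-Glo relative to DMSO controls; % viability at single concentration, GI50 or LD50 from concentration-response curves.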

pIC50: −log10 of the molar value.

The term inhibition denotes the drop in the measured response relative to a control, in per cent. One may read the pIC50 as −log10 of the IC50, conventionally taken in molar units. High values mean a low IC50, low ones a high IC50.

Sequence of hNAMPT protein (P43490 whole entry): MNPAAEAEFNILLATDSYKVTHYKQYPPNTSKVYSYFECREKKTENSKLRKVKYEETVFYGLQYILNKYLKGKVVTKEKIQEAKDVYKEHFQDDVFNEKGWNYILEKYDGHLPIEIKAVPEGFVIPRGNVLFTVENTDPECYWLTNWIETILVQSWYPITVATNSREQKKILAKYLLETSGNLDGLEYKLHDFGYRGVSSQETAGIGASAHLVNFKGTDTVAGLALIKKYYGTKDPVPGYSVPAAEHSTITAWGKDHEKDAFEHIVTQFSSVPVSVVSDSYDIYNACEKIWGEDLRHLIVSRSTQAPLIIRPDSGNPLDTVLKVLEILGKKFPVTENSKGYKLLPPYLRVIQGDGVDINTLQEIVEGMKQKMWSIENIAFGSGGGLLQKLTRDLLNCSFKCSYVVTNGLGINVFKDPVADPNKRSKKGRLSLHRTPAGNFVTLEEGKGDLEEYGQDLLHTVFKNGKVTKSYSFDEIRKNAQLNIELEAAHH

`CCOc1cc(-c2ccnc(OC)c2)nc2cc(C(=O)NCCc3cnn[nH]3)ccc12` [Compound I-195, 4-ethoxy-2-(2-methoxypyridin-4-yl)-N-[2-(1H-1,2,3-triazol-5-yl)ethyl]quinoline-7-carboxamide]: at hNAMPT protein, the inhibition at 1 µM was found to be 89% and the pIC50 was 7.00 to 7.30. In addition, the viability at 1.667 µM in the test on PC3 cells came out at 19%.

Take `O=C(NCCCc1ncc[nH]1)c1ccc2c(CN3CCSCC3)nc(-c3ccc(Cl)cc3)nc2c1` [Compound I-26, 2-(4-chlorophenyl)-N-[3-(1H-imidazol-2-yl)propyl]-4-(thiomorpholin-4-ylmethyl)quinazoline-7-carboxamide]: at hNAMPT protein, the inhibition at 1 µM was found to be 89% and the pIC50 is < 7.00. The viability at 1.667 µM in the test with PC3 cells stood at 1%.

Turning to `CCOc1cc(-c2ccnc(OC)c2F)nc2cc(C(=O)NCCCc3nnc[nH]3)ccc12` [Compound I-90, 4-ethoxy-2-(3-fluoro-2-methoxypyridin-4-yl)-N-[3-(4H-1,2,4-triazol-3-yl)propyl]quinoline-7-carboxamide], at hNAMPT protein, the inhibition at 1 µM came out at 97% and the pIC50 was 7.30 to 8.00. Moreover, the viability at 1.667 µM in the test with PC3 cells stood at 1%.

For the compound `CCc1nc(-c2ccc(Cl)s2)nc2cc(C(=O)NCCCc3ncc[nH]3)ccc12` [Compound I-22, 2-(5-chloro-2-thienyl)-4-ethyl-N-[3-(1H-imidazol-2-yl)propyl]quinazoline-7-carboxamide], at hNAMPT protein, the inhibition at 1 µM was > 99% and the pIC50 was 7.30 to 8.00. Further, in the test with PC3 cells, the viability at 1.667 µM came out at 1%.

On to `COCCOc1cc(-c2ccc(F)cc2)nc2cc(C(=O)NCCCc3cn[nH]n3)ccc12` [Compound I-109, 2-(4-fluorophenyl)-4-(2-methoxyethoxy)-N-[3-(2H-1,2,3-triazol-4-yl)propyl]quinoline-7-carboxamide], for which, on hNAMPT protein, the inhibition at 1 µM is 100% and the pIC50 is 7.30 to 8.00. Besides, the viability at 1.667 µM with PC3 cells stood at 2%.

For `CCOc1cc(-c2ccn(C)c(=O)c2)nc2cc(C(=O)NCCCc3nnc[nH]3)ccc12` [Compound I-118, 4-ethoxy-2-(1-methyl-2-oxo-1,2-dihydropyridin-4-yl)-N-[3-(4H-1,2,4-triazol-3-yl)propyl]quinoline-7-carboxamide], at hNAMPT protein, the inhibition at 1 µM was determined as 99% and the pIC50 is 7.30 to 8.00. The viability at 1.667 µM in the test on PC3 cells is 2%.

As for `CC(C)Cc1nc(-c2ccc(Cl)cc2)nc2cc(C(=O)NCCCc3ncc[nH]3)ccc12` [Compound I-21, 2-(4-chlorophenyl)-N-[3-(1H-imidazol-2-yl)propyl]-4-isobutylquinazoline-7-carboxamide], at hNAMPT protein, the inhibition at 1 µM was 99% and the pIC50 is 7.30 to 8.00. Also, the viability at 1.667 µM in the test with PC3 cells turned out to be 0%.

As for `CCOc1cc(-c2cc(Cl)ccc2F)nc2cc(C(=O)NCCCc3ncc[nH]3)ccc12` [Compound I-11, 2-(5-chloro-2-fluorophenyl)-4-ethoxy-N-[3-(1H-imidazol-2-yl)propyl]quinoline-7-carboxamide], on hNAMPT protein, the inhibition at 1 µM was > 99% and the pIC50 is > 8.00. The viability at 1.667 µM in the test on PC3 cells is 1%.

For `Cc1nc(-c2ccc(Cl)cc2)nc2cc(C(=O)NCCCc3nnc[nH]3)ccc12` [Compound I-63, N-(3-(4H-1,2,4-triazol-3-yl)propyl)-2-(4-chlorophenyl)-4-methylquinazoline-7-carboxamide], on hNAMPT protein, the inhibition at 1 µM amounted to 77% and the negative-log IC50 (pIC50) is < 7.00. The viability at 1.667 µM in the test on PC3 cells was 7%.

For the compound `CCOc1cc(-c2ccc(F)cc2OC)nc2cc(C(=O)NCCCc3cnn[nH]3)ccc12` [Compound I-121, 4-ethoxy-2-(4-fluoro-2-methoxyphenyl)-N-[3-(1H-1,2,3-triazol-5-yl)propyl]quinoline-7-carboxamide], on hNAMPT protein, the inhibition at 1 µM is > 99% and the pIC50 is > 8.00. Also, the viability at 1.667 µM in the test on PC3 cells was 2%.

In the case of `O=C(NCCCc1ncc[nH]1)c1ccc2c(-c3ccc(F)cc3)nc(-c3ccc(Cl)cc3)nc2c1` [Compound I-57, 2-(4-Chlorophenyl)-4-(4-fluorophenyl)-N-[3-(1H-imidazol-2-yl)propyl]quinazoline-7-carboxamide], at hNAMPT protein, the inhibition at 1 µM stood at 99% and the pIC50 is > 8.00. In addition, the viability at 1.667 µM with PC3 cells is 1%.

Take `CCOc1cc(-c2ccc(OC)nc2OC)nc2cc(C(=O)NCCCc3nnc[nH]3)ccc12` [Compound I-143, 2-(2,6-dimethoxypyridin-3-yl)-4-ethoxy-N-[3-(4H-1,2,4-triazol-3-yl)propyl]quinoline-7-carboxamide]: at hNAMPT protein, the inhibition at 1 µM is 97% and the pIC50 is 7.30 to 8.00. Besides, the viability at 1.667 µM in the test on PC3 cells came out at 2%.

On to `COCCOc1cc(-c2ccc(F)cc2)nc2cc(C(=O)NCC(F)(F)Cc3nnc[nH]3)ccc12` [Compound I-81, N-[2,2-difluoro-3-(4H-1,2,4-triazol-3-yl)propyl]-2-(4-fluorophenyl)-4-(2-methoxyethoxy)quinoline-7-carboxamide], for which, at hNAMPT protein, the inhibition at 1 µM stood at 67% and the pIC50 is < 7.00. Besides, the viability at 1.667 µM with PC3 cells is 2%.

As for `CCOc1nc(-c2ccc(F)cc2)nc2cc(C(=O)NCCCc3cncnc3)ccc12` [Compound I-19, 4-ethoxy-2-(4-fluorophenyl)-N-[3-(pyrimidin-5-yl)propyl]quinazoline-7-carboxamide], on hNAMPT protein, the inhibition at 1 µM is > 99% and the negative logarithm of the IC50 (pIC50) is > 8.00. Moreover, the viability at 1.667 µM with PC3 cells came out at 1%.

For the compound `CCCc1nc(-c2ccc(Cl)cc2)nc2cc(C(=O)NCCCc3nnc[nH]3)ccc12` [Compound I-7, 2-(4-chlorophenyl)-4-propyl-N-[3-(4H-1,2,4-triazol-3-yl)propyl]quinazoline-7-carboxamide], on hNAMPT protein, the inhibition at 1 µM turned out to be 97% and the pIC50 was 7.30 to 8.00. The viability at 1.667 µM with PC3 cells is 1%.

Take `CCOc1cc(-c2cnn(C)c2)nc2cc(C(=O)NCCCc3nnc[nH]3)ccc12` [Compound I-206, 4-ethoxy-2-(1-methyl-1H-pyrazol-4-yl)-N-[3-(4H-1,2,4-triazol-3-yl)propyl]quinoline-7-carboxamide]: on hNAMPT protein, the inhibition at 1 µM turned out to be 66% and the pIC50 is < 7.00. For the same compound, the viability at 1.667 µM with PC3 cells amounted to 2%.

Take `CCOc1cc(-c2ccc(F)cc2)nc2cc(C(=O)NCc3cc4cnccc4s3)ccc12` [Compound I-79, 4-ethoxy-2-(4-fluorophenyl)-N-(thieno[3,2-c]pyridin-2-ylmethyl)quinoline-7-carboxamide]: on hNAMPT protein, the inhibition at 1 µM is 99% and the pIC50 is > 8.00. The viability at 1.667 µM in the test on PC3 cells is 2%.

With `CCOc1cc(-c2ccc(Cl)s2)nc2cc(C(=O)NCCc3nnc[nH]3)ccc12` [Compound I-177, 2-(5-chloro-2-thienyl)-4-ethoxy-N-[2-(4H-1,2,4-triazol-3-yl)ethyl]quinoline-7-carboxamide], at hNAMPT protein, the inhibition at 1 µM came to 97% and the negative logarithm of the IC50 (pIC50) was 7.30 to 8.00. The viability at 1.667 µM with PC3 cells is 3%.

With `CCOc1cc(-c2ccc(F)cc2)nc2cc(C(=O)NCCc3cn(C)cn3)ccc12` [Compound I-6, 4-ethoxy-2-(4-fluorophenyl)-N-[2-(1-methyl-1H-imidazol-4-yl)ethyl]quinoline-7-carboxamide], at hNAMPT protein, the inhibition at 1 µM worked out at 94% and the pIC50 is 7.00 to 7.30. For the same compound, in the test on PC3 cells, the viability at 1.667 µM came out at 1%.

In the case of `CCOc1cc(-c2ccc(F)cc2)nc2cc(C(=O)N[C@@H](C)c3nc4cnccc4[nH]3)ccc12` [Compound I-160, 4-ethoxy-2-(4-fluorophenyl)-N-[(1S)-1-(1H-imidazo[4,5-c]pyridin-2-yl)ethyl]quinoline-7-carboxamide], at hNAMPT protein, the inhibition at 1 µM amounted to 60% and the pIC50 is < 7.00. Besides, the viability at 1.667 µM with PC3 cells was > 99%.

On to `CCOc1cc(-c2cc(OC)ncc2F)nc2cc(C(=O)NCCc3cnn[nH]3)ccc12` [Compound I-189, 4-ethoxy-2-(5-fluoro-2-methoxypyridin-4-yl)-N-[2-(1H-1,2,3-triazol-5-yl)ethyl]quinoline-7-carboxamide], for which, on hNAMPT protein, the inhibition at 1 µM was 74% and the pIC50 was < 7.00. Also, the viability at 1.667 µM in the test on PC3 cells is > 99%.

`CCOc1cc(-c2ccc(C)nc2OC)nc2cc(C(=O)NCCc3[nH]nnc3C)ccc12` [Compound I-87, 4-ethoxy-2-(2-methoxy-6-methylpyridin-3-yl)-N-[2-(4-methyl-1H-1,2,3-triazol-5-yl)ethyl]quinoline-7-carboxamide]: at hNAMPT protein, the inhibition at 1 µM worked out at 94% and the pIC50 is 7.30 to 8.00. Further, the viability at 1.667 µM in the test with PC3 cells was found to be 2%.

Consider `CCOc1cc(-c2ccncc2C)nc2cc(C(=O)NCCCc3nnc[nH]3)ccc12` [Compound I-158, 4-ethoxy-2-(3-methylpyridin-4-yl)-N-[3-(4H-1,2,4-triazol-3-yl)propyl]quinoline-7-carboxamide], for which, at hNAMPT protein, the inhibition at 1 µM worked out at 97% and the pIC50 is 7.30 to 8.00. Further, the viability at 1.667 µM in the test with PC3 cells was 1%.

On to `CCCc1nc(-c2ccc(Cl)cc2)nc2cc(C(=O)N[C@H]3C[C@@H](c4ncc[nH]4)C3)ccc12` [Compound I-3, 2-(4-Chlorophenyl)-N-[cis-3-(1H-imidazol-2-yl)cyclobutyl]-4-propyl-quinazoline-7-carboxamide], for which, on hNAMPT protein, the inhibition at 1 µM was 94% and the pIC50 is 7.30 to 8.00. For the same compound, the viability at 1.667 µM in the test with PC3 cells stood at 2%.

For the compound `CCOc1cc(-c2cc(F)ccc2OC)nc2cc(C(=O)NCCCc3nnc[nH]3)ccc12` [Compound I-199, 4-ethoxy-2-(5-fluoro-2-methoxyphenyl)-N-[3-(4H-1,2,4-triazol-3-yl)propyl]quinoline-7-carboxamide], on hNAMPT protein, the inhibition at 1 µM amounted to 100% and the pIC50 was 7.30 to 8.00. Also, the viability at 1.667 µM in the test with PC3 cells is 2%.

These data come from patent US10323018B2 (Millennium Pharmaceuticals, Inc., priority 2015, dated 2019).
